Literature values in US6531488B1, “Method of treating neurodegenerative diseases” (Merck & Co., Inc., priority 1998, dated 2003).
Counter-ions that a name gives are not always drawn.

Test system: patients with Alzheimer's disease
Details: ARICEPT administered alone; patients diagnosed by NINCDS and DMS III-R criteria; assessed with ADAS-cog and CIBIC

For `COc1cc2c(cc1OC)C(=O)C(CC1CCN(Cc3ccccc3)CC1)C2` (racemic) [ARICEPT, (±)-2,3-dihydro-5,6-diomethoxy-2-[[1-(phenylmethyl)-4-piperidinyl]methyl]-1H-indene-1-one hydrochloride], the “effectiveness for the treatment of the symptoms of Alzheimer's disease” value is listed as “effective”.
